Reference: ChEMBL document CHEMBL1201862, “PubChem BioAssay data set” (2004)
Active and inactive are the calls of the source.

What was measured:
BJ [1] = assay: cytotoxicity toward BJ-TERT fibroblasts, dose response, cell-based, RAS-independent, luminescence (AID 1933); format: functional; conditions: Homo sapiens
cells [2] = format: functional, cell-based
BJ [3] = assay: cells; format: functional, cell-based; conditions: Homo sapiens
cells [4] = format: functional, cell-based; remark: listed apart in the source
BJ [5] = assay: cytotoxicity toward BJ-TERT-LT-ST fibroblasts, dose response, cell-based, RAS-independent, luminescence (AID 1935); format: functional; conditions: Homo sapiens;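 note: BJ fibroblasts immortalized with TERT plus LT and ST oncogenes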
[6] = cytotoxicity toward DRD oncogenic fibroblasts, dose response, cell-based, non-viral oncogenic, luminescence (AID 1934); format: functional; conditions: Homo sapiens
INS1 = assay: beta cell apoptosis inhibitors, cytokine rescue, dose response, luminescence, retest (AID 449756); format: functional, cell-based; conditions: Rattus norvegicus;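 note: cell death triggered by IL-1 beta plus TNF-alpha plus IFN-gamma mixture; protective hits raise ATP signal compared with cytokine alone wells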
Leucine aminopeptidase = molecular target: T1, Leucine aminopeptidase (Plasmodium falciparum 3D7, UniProt Q8IL11); assay: P. falciparum M17LAP inhibitors, primary screen, biochemical, fluorogenic H-Leu-NHMec substrate, 1536-well (AID 1619); format: functional
T1 sequence (Q8IL11 whole entry): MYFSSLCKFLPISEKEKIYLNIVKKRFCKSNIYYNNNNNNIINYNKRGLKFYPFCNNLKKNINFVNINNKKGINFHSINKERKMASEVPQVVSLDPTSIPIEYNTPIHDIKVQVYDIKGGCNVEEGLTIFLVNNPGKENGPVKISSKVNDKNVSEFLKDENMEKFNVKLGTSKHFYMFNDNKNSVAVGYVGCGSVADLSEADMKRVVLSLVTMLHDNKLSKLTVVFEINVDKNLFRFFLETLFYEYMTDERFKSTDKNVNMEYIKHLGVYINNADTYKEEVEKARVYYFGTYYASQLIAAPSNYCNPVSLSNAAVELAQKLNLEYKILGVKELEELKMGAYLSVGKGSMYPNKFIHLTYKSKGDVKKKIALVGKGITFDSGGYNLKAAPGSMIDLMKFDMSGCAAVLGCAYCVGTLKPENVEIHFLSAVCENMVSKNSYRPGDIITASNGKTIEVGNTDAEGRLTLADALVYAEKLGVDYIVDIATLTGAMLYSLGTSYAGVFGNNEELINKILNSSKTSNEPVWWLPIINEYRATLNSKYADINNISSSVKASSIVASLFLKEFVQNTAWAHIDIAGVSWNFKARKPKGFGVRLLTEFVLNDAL

[7] = molecular target: T2, Polyadenylate-binding protein 1 (Homo sapiens, UniProt P11940); assay: PABP1 MLLE–PAM2 interaction inhibitors, dose response, miRNA deadenylation inhibitor project, biochemical, fluorescence polarization, Cy5-PAM2 peptide, secondary (AID 602260); format: functional; conditions: read-out: IC50_Mean
[8] = molecular target: T2, Polyadenylate-binding protein 1; assay: PABP1 MLLE–PAM2 binding inhibitor potency, dose response, biochemical, fluorescence polarization, FITC-PAM2 peptide (AID 602259); format: functional; conditions: read-out: IC50_Mean
[9] = HEp-2 cell cytotoxicity, dose response, cytotoxicity control for RSV inhibitor project, HTS (AID 2410); format: functional; conditions: human respiratory syncytial virus
Cytochrome P450 2D6 = Cytochrome P450 2D6 (Homo sapiens, UniProt P10635);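 note: CYP2D6 member of a cytochrome P450 panel assay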
Cytochrome P450 1A2 = molecular target: T3, Cytochrome P450 1A2 (Homo sapiens, UniProt P05177);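 note: PubChem cytochrome P450 panel assay, CYP1A2 panel member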
T3 sequence (P05177 whole entry): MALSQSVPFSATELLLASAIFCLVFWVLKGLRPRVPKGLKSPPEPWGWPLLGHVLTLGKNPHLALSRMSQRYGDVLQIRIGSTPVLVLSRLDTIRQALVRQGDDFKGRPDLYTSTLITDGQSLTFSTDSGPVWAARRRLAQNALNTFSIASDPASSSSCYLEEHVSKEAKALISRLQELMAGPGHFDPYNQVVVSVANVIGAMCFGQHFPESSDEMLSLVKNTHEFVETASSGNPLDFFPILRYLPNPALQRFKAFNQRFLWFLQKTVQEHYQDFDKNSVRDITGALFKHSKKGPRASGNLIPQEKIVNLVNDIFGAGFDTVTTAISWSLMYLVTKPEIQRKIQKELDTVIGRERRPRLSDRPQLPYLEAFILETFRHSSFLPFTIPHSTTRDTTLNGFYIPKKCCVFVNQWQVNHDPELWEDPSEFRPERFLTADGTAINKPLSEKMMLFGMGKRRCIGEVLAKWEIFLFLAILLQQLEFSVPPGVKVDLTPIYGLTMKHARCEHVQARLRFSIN

[10] = NIH-3T3 fibroblast cytotoxicity, dose response, cytotoxicity control, cell-based, fluorescence, Alamar Blue, secondary assay (AID 2327); format: functional;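 note: NIH-3T3 mouse fibroblasts cultured with fluconazole at 8 µg/mL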
[11] = inhibitors of firefly luciferase expression or activity, dose response, H4 neuroglioma cells, luminescence (AID 1990); format: functional, cell-based
[12] = Luminescence Cell-Based Dose Response HTS to Identify Inhibitors of 5'UTR Stem-Loop Driven Prion Protein mRNA Translation in H4 Neuroglioblastoma Cells. [Related pubchem assays: 1827 (Project Summary), 1813 (Primary HTS)]; format: functional
[13] = inhibitors of SNCA 5'UTR-driven reporter translation, confirmation, H4 neuroglioma cells, luminescence (AID 1988); format: functional, cell-based
[14] = C. albicans growth with fluconazole, confirmation, fluorescence, retest (AID 2467); format: functional, cell-based
Paired box protein Pax-8 = Paired box protein Pax-8 (Homo sapiens, UniProt Q06710); assay: inhibitors of PAX8-driven TPO luciferase reporter, dose response, RMG-I cells, cherry-pick (AID 687027); format: functional, cell-based;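 note: luciferase reporter driven by Pax8 target thyroperoxidase promoter measured by SteadyGlo luminescence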
Sequence of Paired box protein Pax-8 (Q06710 whole entry): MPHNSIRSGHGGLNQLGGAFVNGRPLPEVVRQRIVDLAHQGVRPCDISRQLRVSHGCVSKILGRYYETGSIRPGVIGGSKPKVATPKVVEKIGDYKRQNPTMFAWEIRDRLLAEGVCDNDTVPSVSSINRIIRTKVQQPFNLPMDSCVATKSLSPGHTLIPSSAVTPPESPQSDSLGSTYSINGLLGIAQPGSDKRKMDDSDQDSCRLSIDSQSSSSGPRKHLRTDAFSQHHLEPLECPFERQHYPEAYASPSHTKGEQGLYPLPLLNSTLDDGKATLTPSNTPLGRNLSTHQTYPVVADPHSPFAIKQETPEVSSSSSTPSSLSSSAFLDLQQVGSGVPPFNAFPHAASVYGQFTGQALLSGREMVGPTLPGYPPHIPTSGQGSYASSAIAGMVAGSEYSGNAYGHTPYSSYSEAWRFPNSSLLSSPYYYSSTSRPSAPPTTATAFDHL

T2 sequence (P11940 whole entry): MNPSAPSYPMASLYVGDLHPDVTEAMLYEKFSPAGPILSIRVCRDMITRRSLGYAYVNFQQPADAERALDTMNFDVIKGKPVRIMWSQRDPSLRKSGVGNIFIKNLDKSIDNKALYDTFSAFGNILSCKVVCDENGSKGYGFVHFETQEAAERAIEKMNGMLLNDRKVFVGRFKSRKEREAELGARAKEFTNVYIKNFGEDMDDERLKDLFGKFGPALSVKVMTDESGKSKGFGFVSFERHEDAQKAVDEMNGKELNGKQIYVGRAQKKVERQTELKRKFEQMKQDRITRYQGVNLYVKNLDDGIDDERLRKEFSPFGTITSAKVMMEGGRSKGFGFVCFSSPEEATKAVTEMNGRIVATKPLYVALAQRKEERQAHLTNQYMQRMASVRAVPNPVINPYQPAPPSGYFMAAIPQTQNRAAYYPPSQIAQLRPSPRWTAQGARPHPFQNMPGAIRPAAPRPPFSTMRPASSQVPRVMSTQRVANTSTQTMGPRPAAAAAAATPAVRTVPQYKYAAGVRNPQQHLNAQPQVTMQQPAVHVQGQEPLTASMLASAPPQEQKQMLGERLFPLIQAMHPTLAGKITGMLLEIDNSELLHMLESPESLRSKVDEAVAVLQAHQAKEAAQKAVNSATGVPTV
Sequence of Cytochrome P450 2D6 (P10635 whole entry): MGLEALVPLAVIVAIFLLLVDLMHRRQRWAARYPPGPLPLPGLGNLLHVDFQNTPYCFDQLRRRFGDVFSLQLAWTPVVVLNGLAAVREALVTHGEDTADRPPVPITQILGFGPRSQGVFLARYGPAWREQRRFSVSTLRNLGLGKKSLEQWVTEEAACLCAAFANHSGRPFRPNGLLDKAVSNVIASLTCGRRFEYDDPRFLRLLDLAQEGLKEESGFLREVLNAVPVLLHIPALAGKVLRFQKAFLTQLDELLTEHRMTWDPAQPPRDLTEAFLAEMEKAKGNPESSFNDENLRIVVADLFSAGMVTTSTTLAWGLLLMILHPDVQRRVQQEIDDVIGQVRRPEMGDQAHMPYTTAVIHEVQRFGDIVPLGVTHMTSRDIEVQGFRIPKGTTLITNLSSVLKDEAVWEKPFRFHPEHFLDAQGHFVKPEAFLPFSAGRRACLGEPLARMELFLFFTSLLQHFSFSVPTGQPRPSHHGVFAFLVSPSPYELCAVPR

In the case of `Cn1nccc1C(=O)N/N=C/c1c(O)ccc2ccccc12`, the EC50 (BJ [1]) is reported as 1.61 µM (active), the EC50 (cells [2]) is reported as 5.93 µM (active) and the EC50 (BJ [3]) is reported as 7.69 µM (active). The EC50 (cells [4]) was 38.7 µM (active), the EC50 (BJ [5]) was 4.66 µM (active) and the EC50 [6] was 1.59 µM (active). For the same molecule, the AC50 (INS1) was 0.856 µM (active).

For `CCCOc1ccc(NC(=O)C2CC(=O)N(C(C)C)C2)cc1` (stereo unspecified), the IC50 (Leucine aminopeptidase) was 99.7 µM (active).

In the case of `O=C(O)C1CC=CCC1C(=O)Nc1ccc2c(c1)OCCO2` (stereo unspecified), the IC50 (Leucine aminopeptidase) is reported as 13.4 µM (active).

For `O=C(NC(=S)Nc1ccccc1)c1cncc(C#Cc2ccccc2)c1`, the IC50 [7] was > 66 µM (inactive) and the IC50 [8] was > 66 µM (inactive).

In the case of `Cc1ccc(S(=O)(=O)CCC(=O)Nc2nc3c(s2)CCCC3)cc1`, the CC50 [9] is reported as 32.3 µM (active), the AC50 (Cytochrome P450 2D6) is reported as 28.2 µM (inconclusive) and the AC50 (Cytochrome P450 1A2) is reported as 15.8 µM (inconclusive).

With `COc1ccc(NC(S)=Nc2cccc(Cl)c2)cc1OC` the IC50 [7] was > 66 µM (inactive) and the IC50 [8] was > 66 µM (inactive).

In the case of `CS(=O)(=O)N1CCC2(CCN(c3ccncc3)CC2)CC1`, the AC50 (Cytochrome P450 2D6) is reported as 25.1 µM (inconclusive).

With `O=C(CN1C(=O)S/C(=C\c2ccccc2)C1=O)NCCCn1ccnc1` the IC50 [7] was > 66 µM (inactive) and the IC50 [8] was > 66 µM (inactive).

With `COCCCN=C(S)N(CCO)Cc1cc2cc3c(cc2nc1O)OCCO3` the IC50 [7] was > 66 µM (inactive) and the IC50 [8] was > 66 µM (inactive).

In the case of `[O-]c1ccccc1-[n+]1c(-c2ccccc2)cc(-c2ccccc2)cc1-c1ccccc1`, the EC50 [10] is reported as > 160 µM (inconclusive), the EC50 [11] is reported as > 120 µM (not active) and the EC50 (BJ [1]) is reported as 11.7 µM (active). For the same molecule, the EC50 [12] was > 120 µM (not active), the EC50 [13] was > 120 µM (not active) and the EC50 (BJ [3]) was 14.2 µM (active). For the same molecule, the EC50 [14] was 0.85 µM (active), the EC50 (BJ [5]) was > 150 µM (inconclusive) and the EC50 [6] was 11.4 µM (active). For the same molecule, the AC50 (INS1) was 6.35 µM (active).

In the case of `CCc1cc(C(=O)c2ccccc2OC)c(N)s1`, the IC50 [7] is reported as > 66 µM (inactive) and the IC50 [8] is reported as > 66 µM (inactive).

In the case of `Cn1c(CCN2CCN(c3ccccn3)CC2)nc2cc(NS(=O)(=O)c3ccc(Cl)cc3)ccc21`, the AC50 (Paired box protein Pax-8) is reported as 8.15 µM (active).

With `O=C(NC(=S)Nc1ccc2oc(=O)ccc2c1)c1ccco1` the IC50 [7] was > 66 µM (inactive) and the IC50 [8] was > 66 µM (inactive).
